Experiments:
[1] = tested on: Rattus norvegicus; test: Toxicity in […] normotensive Wistar rat assessed as mean arterial pressure at 40 mg/kg, ip after 30 mins (reference value: 94.68 +/- 1.213 mmHg); type: organism-based, Artery; design: dose 40 mg/kg, route intraperitoneal; settings: in vivo, 0.5 h
[2] = tested on: Rattus norvegicus; test: Toxicity in anesthetized-normotensive Wistar rat assessed as heart rate at 40 mg/kg, ip after 15 mins (reference value: 313.93 +/- 9.912 bpm); type: organism-based; design: dose 40 mg/kg, route intraperitoneal; settings: in vivo, 0.25 h
[3] = tested on: Rattus norvegicus; test: Antihypertensive activity in Wistar rat assessed as mean arterial pressure at 40 mg/kg, ip measured immediately at 0 min (reference value: 194.08 +/- 1.962 mmHg); type: functional, Artery; settings: route intraperitoneal
[4] = tested on: Rattus norvegicus; test: Toxicity in anaesthetized-Wistar rat assessed as Q-T ECG interval at 40 mg/kg, ip after 15 mins (reference value: 79.4 +/- 1.270 ms); type: organism-based; design: dose 40 mg/kg, route intraperitoneal; settings: in vivo, 0.25 h
[5] = tested on: Rattus norvegicus; test: Toxicity in […] normotensive Wistar rat assessed as mean arterial pressure at 40 mg/kg, ip after 45 mins (reference value: 94.83 +/- 0.943 mmHg); type: organism-based, Artery; design: dose 40 mg/kg, route intraperitoneal; settings: in vivo, 0.75 h
[6] = tested on: Rattus norvegicus; test: Antiarrhythmic activity in barium chloride-induced Wistar rat assessed as increase in mortality time at 40 mg/kg, ip administered 60 mins before barium chloride challenge (reference value: 682.8 +/- 9.656 secs); type: functional, Heart; settings: route intraperitoneal
[7] = tested on: Rattus norvegicus; test: Toxicity in anaesthetized-Wistar rat assessed as Q-T ECG interval at 40 mg/kg, ip after 30 mins (reference value: 78.3 +/- 0.860 ms); type: organism-based; design: dose 40 mg/kg, route intraperitoneal; settings: in vivo, 0.5 h
[8] = tested on: Rattus norvegicus; test: Toxicity in anaesthetized-Wistar rat assessed as Q-T ECG interval at 40 mg/kg, ip after 60 mins (reference value: 79.7 +/- 0.965 ms); type: organism-based; design: dose 40 mg/kg, route intraperitoneal; settings: in vivo, 1 h
[9] = tested on: Rattus norvegicus; test: Toxicity in anaesthetized-Wistar rat assessed as P-Q ECG interval at 40 mg/kg, ip measured immediately at 0 min (reference value: 52.4 +/- 0.927 ms); type: organism-based; design: dose 40 mg/kg, route intraperitoneal; settings: in vivo, 0 h
[10] = tested on: Rattus norvegicus; test: Toxicity in anaesthetized-Wistar rat assessed as QRS ECG interval at 40 mg/kg, ip after 45 mins (reference value: 20.2 +/- 1.348 ms); type: organism-based; design: dose 40 mg/kg, route intraperitoneal; settings: in vivo, 0.75 h
[11] = tested on: Rattus norvegicus; test: Toxicity in anaesthetized-Wistar rat assessed as QRS ECG interval at 40 mg/kg, ip after 60 mins (reference value: 19.3 +/- 0.873 ms); type: organism-based; design: dose 40 mg/kg, route intraperitoneal; settings: in vivo, 1 h
[12] = tested on: Rattus norvegicus; test: Antihypertensive activity in Wistar rat assessed as mean arterial pressure at 40 mg/kg, ip after 15 mins (reference value: 195.68 +/- 1.623 mmHg); type: functional, Artery; settings: route intraperitoneal
[13] = tested on: Rattus norvegicus; test: Toxicity in anesthetized-normotensive Wistar rat assessed as heart rate at 40 mg/kg, ip measured immediately at 0 min (reference value: 316.62 +/- 9.643 bpm); type: organism-based; design: dose 40 mg/kg, route intraperitoneal; settings: in vivo, 0 h
[14] = tested on: Rattus norvegicus; test: Toxicity in […] normotensive Wistar rat assessed as mean arterial pressure at 40 mg/kg, ip after 60 mins (reference value: 95.07 +/- 1.973 mmHg); type: organism-based, Artery; design: dose 40 mg/kg, route intraperitoneal; settings: in vivo, 1 h
[15] = tested on: Rattus norvegicus; test: Toxicity in anaesthetized-Wistar rat assessed as Q-T ECG interval at 40 mg/kg, ip after 45 mins (reference value: 78.8 +/- 0.927 ms); type: organism-based; design: dose 40 mg/kg, route intraperitoneal; settings: in vivo, 0.75 h
[16] = tested on: Rattus norvegicus; test: Toxicity in anaesthetized-Wistar rat assessed as Q-T ECG interval at 40 mg/kg, ip measured immediately at 0 min (reference value: 78.8 +/- 1.030 ms); type: organism-based; design: dose 40 mg/kg, route intraperitoneal; settings: in vivo, 0 h
[17] = tested on: Rattus norvegicus; test: Toxicity in anaesthetized-Wistar rat assessed as P-Q ECG interval at 40 mg/kg, ip after 45 mins (reference value: 52.5 +/- 0.780 ms); type: organism-based; design: dose 40 mg/kg, route intraperitoneal; settings: in vivo, 0.75 h
[18] = tested on: Rattus norvegicus; test: Toxicity in […] normotensive Wistar rat assessed as mean arterial pressure at 40 mg/kg, ip after 15 mins (reference value: 93.81 +/- 1.543 mmHg); type: organism-based, Artery; design: dose 40 mg/kg, route intraperitoneal; settings: in vivo, 0.25 h
[19] = tested on: Rattus norvegicus; test: Antiarrhythmic activity in barium chloride-induced Wistar rat assessed as increase in appearance time of arrhythmia at 40 mg/kg, ip administered 60 mins before barium chloride challenge (reference value: 129.4 +/- 4.373 sec); type: functional, Heart; settings: route intraperitoneal
[20] = tested on: Rattus norvegicus; test: Toxicity in […] normotensive Wistar rat assessed as mean arterial pressure at 40 mg/kg, ip measured immediately at 0 min (reference value: 94.21 +/- 2.065 mmHg); type: organism-based, Artery; design: dose 40 mg/kg, route intraperitoneal; settings: in vivo, 0 h
[21] = tested on: Rattus norvegicus; test: Toxicity in anaesthetized-Wistar rat assessed as QRS ECG interval at 40 mg/kg, ip after 30 mins (reference value: 19.9 +/- 1.393 ms); type: organism-based; design: dose 40 mg/kg, route intraperitoneal; settings: in vivo, 0.5 h
[22] = tested on: Rattus norvegicus; test: Toxicity in anesthetized-normotensive Wistar rat assessed as heart rate at 40 mg/kg, ip after 60 mins (reference value: 314.96 +/- 9.442 bpm); type: organism-based; design: dose 40 mg/kg, route intraperitoneal; settings: in vivo, 1 h
[23] = tested on: Rattus norvegicus; test: Toxicity in anaesthetized-Wistar rat assessed as P-Q ECG interval at 40 mg/kg, ip after 60 mins (reference value: […] +/- 0.924 ms); type: organism-based; design: dose 40 mg/kg, route intraperitoneal; settings: in vivo, 1 h
[24] = tested on: Rattus norvegicus; test: Antihypertensive activity in Wistar rat assessed as mean arterial pressure at 40 mg/kg, ip after 60 mins (reference value: 195.11 +/- 0.531 mmHg); type: functional, Artery; settings: route intraperitoneal
[25] = tested on: Rattus norvegicus; test: Toxicity in anaesthetized-Wistar rat assessed as QRS ECG interval at 40 mg/kg, ip measured immediately at 0 min (reference value: 19.6 +/- 1.142 ms); type: organism-based; design: dose 40 mg/kg, route intraperitoneal; settings: in vivo, 0 h
[26] = tested on: Rattus norvegicus; test: Toxicity in anaesthetized-Wistar rat assessed as QRS ECG interval at 40 mg/kg, ip after 15 mins (reference value: 18.9 +/- 1.563 ms); type: organism-based; design: dose 40 mg/kg, route intraperitoneal; settings: in vivo, 0.25 h
[27] = tested on: Rattus norvegicus; test: Toxicity in anesthetized-normotensive Wistar rat assessed as heart rate at 40 mg/kg, ip after 45 mins (reference value: 316.82 +/- 8.452 bpm); type: organism-based; design: dose 40 mg/kg, route intraperitoneal; settings: in vivo, 0.75 h
[28] = tested on: Rattus norvegicus; test: Antihypertensive activity in Wistar rat assessed as mean arterial pressure at 40 mg/kg, ip after 45 mins (reference value: 193.96 +/- 0.865 mmHg); type: functional, Artery; settings: route intraperitoneal
[29] = tested on: Rattus norvegicus; test: Toxicity in anaesthetized-Wistar rat assessed as P-Q ECG interval at 40 mg/kg, ip after 30 mins (reference value: […] +/- 0.927 ms); type: organism-based; design: dose 40 mg/kg, route intraperitoneal; settings: in vivo, 0.5 h
[30] = tested on: Rattus norvegicus; test: Antihypertensive activity in Wistar rat assessed as mean arterial pressure at 40 mg/kg, ip after 30 mins (reference value: 194.72 +/- 1.002 mmHg); type: functional, Artery; settings: route intraperitoneal
[31] = tested on: Rattus norvegicus; test: Toxicity in anesthetized-normotensive Wistar rat assessed as heart rate at 40 mg/kg, ip after 30 mins (reference value: 317.68 +/- 7.631 bpm); type: organism-based; design: dose 40 mg/kg, route intraperitoneal; settings: in vivo, 0.5 h
[32] = tested on: Rattus norvegicus; test: Toxicity in anaesthetized-Wistar rat assessed as P-Q ECG interval at 40 mg/kg, ip after 15 mins (reference value: 52.2 +/- 1.158 ms); type: organism-based; design: dose 40 mg/kg, route intraperitoneal; settings: in vivo, 0.25 h

Structure (SMILES) | Activity [1] [mmHg] | Activity [2] [bpm] | Activity [3] [mmHg] | Activity [4] [min] | Activity [5] [mmHg] | Time [6] [s] | Activity [7] [min] | Activity [8] [ms] | Activity [9] [ms] | Activity [10] [min] | Activity [11] [min] | Activity [12] [mmHg] | Activity [13] [bpm] | Activity [14] [mmHg] | Activity [15] [ms] | Activity [16] [min] | Activity [17] [min] | Activity [18] [mmHg] | Time [19] [s] | Activity [20] [mmHg] | other results
O=C1/C(=C\c2ccccc2)S/C(=N\c2ccccc2)N1CC(O)CN1CCN(C2CCCCC2)CC1 (centres undefined) | 77.84 | 312.65 | 195.99 | 72.9 | 64.01 | 944.9 | 73.3 | 71.2 | 51.2 | 22.8 | 22.6 | 185.69 | 324.13 | 75.43 | 72.9 | 72.8 | 50.6 | 85.61 | 297.5 | 93.99 | Activity [21]: 21.9 ms; Activity [22]: 303.42 bpm; Activity [23]: 51.3 min; Activity [24]: 158.39 mmHg; Activity [25]: 20 min; Activity [26]: 21.4 min; Activity [27]: 294.42 bpm; Activity [28]: 138.63 mmHg; Activity [29]: 52.3 min; Activity [30]: 151.12 mmHg; Activity [31]: 289.54 bpm; Activity [32]: 51.7 min
O=C1/C(=C\c2ccccc2)S/C(=N\c2ccccc2)N1CC(O)CN1CCC(C(O)(c2ccccc2)c2ccccc2)CC1 (centres undefined) | 70.26 | 310.46 | 193.69 | 73.4 | 64.53 | 1162.1 | 74.3 | 72.7 | 49.8 | 24.2 | 22.5 | 176.43 | 332.05 | 71.94 | 4.49e+06 | 72.9 | 52.4 | 76.73 | 323.4 | 91.39 | Activity [21]: 23.8 ms; Activity [22]: 302.12 bpm; Activity [23]: 50.2 min; Activity [24]: 162.87 mmHg; Activity [25]: 22.4 min; Activity [26]: 23.1 min; Activity [27]: 295.73 bpm; Activity [28]: 135.96 mmHg; Activity [29]: 51.3 min; Activity [30]: 139.21 mmHg; Activity [31]: 279.31 bpm; Activity [32]: 50.1 min

From ChEMBL document CHEMBL3232945 (Eur J Med Chem, 2014)
